Consider 34 molecules from patent US20230357271A1, “MACROCYCLIC COMPOUND” (Asahi Kasei Pharma Corporation, priority 2020, published 2023).

For data set [1] the following is noted: cn_pd bond.
For data set [2] the following is noted: from CC1CC(N)C[C@@H](C(=O)NCC/C=C/c2c(OCc3ccccc3)ccc3ncc(Br)cc23)N1C; cn_pd bond; 14-membered ring; Pd2(dba)3/XPhos/NaOPh; 1,4-dioxane; 97.4 mM; 14.0 h.
In data set [3] the test system is human acute monocytic leukemia cell strain THP-1. Kind of data set: LPS-stimulated TNFα production inhibition test using THP-1 cells. The class given is cell-based. Conditions: LPS 2.5 ng/mL, TNFα by HTRF. The method, then:
By the THP-1 assay, influence of a test compound on the TNFα production induced by LPS stimulation can be evaluated. The THP-1 cells (ATCC, Cat. TIB-202) were inoculated on a 96-well plate at a density of 1 × 10^5 cells/160 µL/well, a test compound was added in a volume of 20 µL, and the plate was incubated at 37° C. for 1 hour in a 5% CO2 incubator. Then, LPS in a volume of 20 µL (final concentration 2.5 ng/mL, Sigma, Cat. L2630) was added, and the plate was further incubated for 4 hours. After the incubation, the plate was centrifuged, and 100 µL of the supernatant was taken from each well, and used for evaluation of the amount of TNFα using HTRF (Cisbio, Cat. 62TNFPEB). In the measurement of the amount of TNFα, the supernatant was diluted twice with the medium, and then added to wells of a 384-well plate in a volume of 10 µL, then anti-TNFα-cryptate (5 µL), and anti-TNFα-XL665 (5 µL) were added, and the plate was left standing overnight. The fluorescence intensity ratio for the wavelengths of 620 and 665 nm (620 nm/665 nm) was measured with a microplate reader, and the amount of TNFα in the supernatant was calculated by using a calibration curve. The TNFα production suppression ratio observed with no addition of LPS was defined to be 100%, the TNFα production suppression ratio observed with no addition of the test compound was defined to be 0%, and IC50 of the test compound was calculated by using the 4-parameter logistic model of the data analysis software XLfit (ID Business Solutions Ltd.).
When the measurement was performed in multiplicate, the results are represented with average values. The values were rounded to the fourth decimal place.
(Time-resolved FRET reads energy transfer from a long-lived donor to a nearby acceptor.)

Another data set addresses human IRAK-4 (Homo sapiens (Human), UniProt Q9NWZ3). The data set can be described thus: Measurement of human IRAK-4 inhibitory activity (TR-FRET). The conditions noted are these: 1 nM IRAK-4, 0.5 µM peptide substrate, 10 µM ATP, 23° C., 30 minutes. Format: biochemical. The method, then:
For the measurement of the activity of the human IRAK-4 (Invitrogen, Cat. PV3362), phosphorylation of the IRAK-4 peptide substrate (biotin-KKKKRFSFKKSFKC) by the enzyme in the presence of 10 µM ATP (Sigma-Aldrich, Cat. A7699) was measured by the TR-FRET method. The enzymatic reaction was performed in a reaction buffer containing 50 mM HEPES (pH 7.2), 1 mM DTT, 0.1 mM Na3VO4, 5 mM MgCl2, 1 mM MnCl2, and 0.1% bovine serum albumin. For the measurement of the IRAK-4 inhibitory activity, a test compound was added to the reaction buffer containing 1 nM IRAK-4, 0.5 µM peptide substrate, and 10 µM ATP, and the mixture was incubated at 23° C. for 30 minutes. Then, a detection solution containing an antibody labeled with europium cryptate (0.3 µg/mL, the antibody was prepared by using the IRAK-4 peptide substrate as the antigen), streptavidin-XL665 (2 µg/mL, CisBio, Cat. 610SAXLB), 50 mM HEPES (pH 7.2), 0.1% BSA, 120 mM KF, and 66.7 mM EDTA (all the concentrations of the reagents are final concentrations) was added to terminate the reaction, and then the mixture was further incubated at 23° C. for 60 minutes. Fluorescence intensity was measured at wavelengths of 665 nm and 620 nm with a microplate reader, and the enzymatic activity was calculated as the ratio of fluorescence intensities at 665 nm and 620 nm (665 nm/620 nm).
When the measurement was performed in multiplicate, the results are represented with average values.

Like-named read-outs stand apart in the source and are kept apart here.

Chain of human IRAK-4 (Q9NWZ3 whole entry): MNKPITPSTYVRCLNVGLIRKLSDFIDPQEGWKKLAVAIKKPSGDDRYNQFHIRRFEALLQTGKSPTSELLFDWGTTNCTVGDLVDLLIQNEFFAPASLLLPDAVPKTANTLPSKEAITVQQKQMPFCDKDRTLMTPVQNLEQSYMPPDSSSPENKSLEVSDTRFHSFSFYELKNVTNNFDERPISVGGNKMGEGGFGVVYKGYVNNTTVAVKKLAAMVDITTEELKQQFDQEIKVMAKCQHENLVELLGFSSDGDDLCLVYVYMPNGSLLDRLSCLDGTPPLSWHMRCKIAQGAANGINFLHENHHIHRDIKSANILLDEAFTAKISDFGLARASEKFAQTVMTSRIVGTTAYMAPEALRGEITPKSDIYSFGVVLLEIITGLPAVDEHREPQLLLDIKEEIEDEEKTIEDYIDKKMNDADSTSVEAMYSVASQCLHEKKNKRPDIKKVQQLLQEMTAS

In data set [1] (from CC(C)(C)OC(=O)N1CC[C@H](N)C[C@H]1C(=O)NCCCCc1c(OCc2ccccc2)ccc2ncc(Br)cc12, tBuBrettPhos Pd G3 / phosphazene base P2-Et, toluene, 29.3 mM, 25.0 °C), `CC(C)(C)OC(=O)N1CC[C@H]2C[C@H]1C(=O)NCCCCc1c(OCc3ccccc3)ccc3ncc(cc13)N2` registered a ring closure, yield of all isomers of 39%.
In data set [1] (from CC1CC(N)C[C@@H](C(=O)NCC/C=C/c2c(OCc3ccccc3)ccc3ncc(Br)cc23)N1C, Pd2(dba)3 / XPhos / sodium phenoxide, 1,4-dioxane, 97.4 mM, 101.0 °C, 14.0 h), `CC1CC2C[C@@H](C(=O)NCC/C=C/c3c(OCc4ccccc4)ccc4ncc(cc34)N2)N1C` (stereo partly shown) returned a ring closure, yield of all isomers of 75%.
In turn, `CC1CC2C[C@@H](C(=O)NCCC=Cc3c(OCc4ccccc4)ccc4ncc(cc34)N2)N1C` (stereo partly shown) had a ring closure, isolated yield in data set [2] of 75%.
In data set [1] (from CN1CCC(N)CC1(C)C(=O)NCC(F)COc1c(OCc2ccccc2)ccc2ncc(Br)cc12, Pd2(dba)3 / XPhos / sodium phenoxide, 1,4-dioxane, 107.0 mM, 101.0 °C, 14.0 h), `CN1CCC2CC1(C)C(=O)NCC(F)COc1c(OCc3ccccc3)ccc3ncc(cc13)N2` (stereo not shown) gave a ring closure, yield of all isomers of 32%.
With `CC1CNC(=O)[C@@H]2C[C@H](CCN2C)Nc2cnc3ccc(-c4cncnc4)c(c3n2)OC1` (stereo partly shown) [a-01-36], the IC50 in data set [3] (Homo sapiens, THP-1, 4 h) amounted to 0.182 µM; at human IRAK-4, 8.86 nM.
As to `CCCOCc1ncc(-c2ccc3ncc4nc3c2OCCC(CC)CNC(=O)[C@@H]2C[C@H](CCN2C)N4)cn1` (stereo partly shown) [a-01-37], the IC50 in data set [3] (Homo sapiens, THP-1, 4 h) is 0.189 µM; against human IRAK-4, 4.52 nM.
As to `CCCOCc1ncc(-c2ccc3ncc4nc3c2OCCCN(C)C(=O)[C@@H]2C[C@H](CCN2C)N4)cn1` [a-01-38], the half-inhibitory concentration (IC50) was determined as 0.199 µM in data set [3] (Homo sapiens, THP-1, 4 h) and 6.73 nM on human IRAK-4.
Consider `CN1CC[C@H]2C[C@H]1C(=O)NCCCCCOc1c(-c3cncnc3)ccc3ncc(nc13)N2` [a-01-39], for which the IC50 in data set [3] (Homo sapiens, THP-1, 4 h) came out at 0.204 µM; against human IRAK-4 it was 5.12 nM.
Regarding `CN1CC[C@H]2C[C@H]1C(=O)NCC(C)(C)COc1c(-c3cncnc3)ccc3ncc(nc13)N2` [a-01-40], the IC50 in data set [3] (Homo sapiens, THP-1, 4 h) was 0.253 µM; against human IRAK-4, 14.8 nM.
On to `Cc1ncc(-c2ccc3ncc4nc3c2OCC(F)CNC(=O)[C@@H]2C[C@H](CCN2C)N4)cn1` (stereo partly shown) [a-01-41], for which the IC50 in data set [3] (4 hours) was determined as 0.293 µM; against human IRAK-4, 10 nM.
Consider `Cc1ncc(-c2ccc3ncc4nc3c2OCCCN(C)C(=O)[C@@H]2C[C@H](CCN2C)N4)cn1` [a-01-42], for which the IC50 is 0.246 µM in data set [3] (Homo sapiens, THP-1, 4 h) and 6.61 nM at human IRAK-4.
For `CN1CC[C@H]2C[C@H]1C(=O)NCC1(CCC1)COc1c(-c3cnc(CO)s3)ccc3ncc(nc13)N2` [a-01-44] the same measures were 0.21 µM and 2.36 nM.
In the same order, the values of `COCc1ncc(-c2ccc3ncc4nc3c2OCCCNC(=O)[C@@H]2C[C@H](CCN2C)N4)cn1` [a-01-45] are 0.227 µM and 3.28 nM.
Take `CCCOCc1ncc(-c2ccc3ncc4cc3c2OCC(F)CNC(=O)[C@@H]2C[C@H](CC(C)N2C)N4)cn1` (stereo partly shown) [a-02-01]: the IC50 in data set [3] (Homo sapiens, THP-1, 4 h) was 0.012 µM; against human IRAK-4 it was 2.33 nM.
In the case of `CCCOCc1ncc(-c2ccc3ncc4cc3c2OCC(F)CNC(=O)[C@@H]2C[C@H](CCN2C)N4)cn1` (stereo partly shown) [a-02-02, (3^2S,3^4S)-7-Fluoro-3^1-methyl-1^6-(2-(propoxymethyl)pyrimidin-5-yl)-9-oxa-2,5-diaza-1(3,5)-qunolina-3(4,2)-piperidinacyclononaphan-4-one], the half-maximal inhibitory concentration (IC50) in data set [3] (Homo sapiens, THP-1, 4 h) was 0.013 µM; at human IRAK-4, 1.09 nM.
Take `O=C1OCCCOc2c(-c3cnc(CO[C@H]4CCC[C@@H]4O)nc3)ccc3ncc(cc23)N[C@H]2CCN[C@H]1C2` [a-02-03]: the IC50 was 0.013 µM in data set [3] (Homo sapiens, THP-1, 4 h) and 2.51 nM against human IRAK-4.
Regarding `CN1CC[C@H]2C[C@H]1C(=O)OCCCOc1c(-c3cnc(COCC(O)C4CC4)nc3)ccc3ncc(cc13)N2` (stereo partly shown) [a-02-04], the concentration for half-maximal inhibition (IC50) in data set [3] (Homo sapiens, THP-1, 4 h) was 0.023 µM; against human IRAK-4 it was 5.63 nM.
On to `CCCOCc1ncc(-c2ccc3ncc4cc3c2OCCCOC(=O)[C@@H]2C[C@H](CCN2)N4)cn1` [a-02-05], for which the concentration for half-maximal inhibition (IC50) in data set [3] (Homo sapiens, THP-1, 4 h) came to 0.023 µM; against human IRAK-4, 2.47 nM.
Turning to `[2H]C([2H])([2H])N1CC[C@H]2C[C@H]1C(=O)NCC(F)COc1c(-c3cnc(COCCC)nc3)ccc3ncc(cc13)N2` (stereo partly shown) [a-02-06], the concentration for half-maximal inhibition (IC50) in data set [3] (Homo sapiens, THP-1, 4 h) turned out to be 0.024 µM; against human IRAK-4, 2 nM.
For `Cc1ncc(-c2ccc3ncc4cc3c2OCCCOC(=O)C2CC(CC(C)N2C)N4)cn1` (stereo not shown) [a-02-07] the same measures were 0.033 µM and 2.04 nM.
Regarding `CCC(O)COCc1ncc(-c2ccc3ncc4cc3c2OCCCOC(=O)[C@@H]2C[C@H](CCN2C)N4)cn1` (stereo partly shown) [a-02-08], the IC50 came out at 0.036 µM in data set [3] (Homo sapiens, THP-1, 4 h) and 5.73 nM against human IRAK-4.
In the same order, the values of `Cc1ncc(-c2ccc3ncc4cc3c2OCC(F)CNC(=O)[C@@H]2C[C@H](CC(C)N2C)N4)cn1` (stereo partly shown) [a-02-09] are 0.036 µM and 0.86 nM.
In the case of `CCCOCc1ncc(-c2ccc3ncc4cc3c2OCCCOC(=O)[C@@H]2C[C@H](CCN2C)N4)cn1` [a-02-10], the 50% inhibitory concentration (IC50) in data set [3] (Homo sapiens, THP-1, 4 h) is 0.043 µM; against human IRAK-4, 2.96 nM.
In the same order, the values of `O=C1OCCCOc2c(-c3cnc(CO)nc3)ccc3ncc(cc23)N[C@H]2CCN[C@H]1C2` [a-02-12] are 0.047 µM and 0.93 nM.
For `Cc1ncc(-c2ccc3ncc4cc3c2OCC(F)CNC(=O)[C@@H]2C[C@H](CCN2C(C)C)N4)cn1` (stereo partly shown) [a-02-13], the IC50 in data set [3] (Homo sapiens, THP-1, 4 h) was 0.048 µM; on human IRAK-4, 1.12 nM.
Consider `CCCOCc1ncc(-c2ccc3ncc4cc3c2OCC(F)COC(=O)[C@@H]2C[C@H](CCN2C)N4)cn1` (stereo partly shown) [a-02-14], for which the IC50 in data set [3] (Homo sapiens, THP-1, 4 h) is 0.058 µM; on human IRAK-4, 6.46 nM.
As to `CN1CC[C@H]2C[C@H]1C(=O)OCCCOc1c(-c3cnc(CO)nc3)ccc3ncc(cc13)N2` [a-02-15], the IC50 in data set [3] (Homo sapiens, THP-1, 4 h) worked out at 0.064 µM; against human IRAK-4, 2.23 nM.
In the case of `Cc1ncc(-c2ccc3ncc4cc3c2OCC(F)CNC(=O)[C@@H]2C[C@H](CCN2C)N4)cn1` (stereo partly shown) [a-02-16], the IC50 in data set [3] (Homo sapiens, THP-1, 4 h) turned out to be 0.065 µM; against human IRAK-4, 0.81 nM.
Take `Cc1ncc(-c2ccc3ncc4cc3c2OCCCOC(=O)[C@@H]2C[C@H](CCN2)N4)cn1` [a-02-18]: the 50% inhibitory concentration (IC50) worked out at 0.081 µM in data set [3] (Homo sapiens, THP-1, 4 h) and 1.66 nM at human IRAK-4.
In the case of `Cc1ncc(-c2ccc3ncc4cc3c2OCC2(CC2)COC(=O)[C@@H]2C[C@H](CCN2C)N4)cn1` [a-02-19], the half-maximal inhibitory concentration (IC50) in data set [3] (Homo sapiens, THP-1, 4 h) turned out to be 0.102 µM; against human IRAK-4, 3.9 nM.
In the same order, the values of `Cc1ncc(-c2ccc3ncc4cc3c2OCCCOC(=O)[C@@H]2C[C@H](CCN2C)N4)cn1` [a-02-20] are 0.117 µM and 3.21 nM.
With `Cc1ncc(-c2ccc3ncc4cc3c2OCCCNC(=O)[C@@H]2C[C@H](CCN2C)N4)cn1` [a-02-21], the IC50 in data set [3] (Homo sapiens, THP-1, 4 h) turned out to be 0.135 µM; against human IRAK-4 it was 2.2 nM.
Consider `Cc1ncc(-c2ccc3ncc4cc3c2OCC(F)CNC(=O)C2(C)CC(CCN2C)N4)cn1` (stereo not shown) [a-02-23, 7-Fluoro-3^1,3^2-dimethyl-1^6-(2-methylpyrimidin-5-yl)-9-oxa-2,5-diaza-1 (3,5)-qunolina-3(4,2)-piperidinacyclononaphan-4-one], for which the IC50 in data set [3] (Homo sapiens, THP-1, 4 h) worked out at 0.716 µM; at human IRAK-4, 9.7 nM.
Consider `CCCOCc1ncc(-c2ccc3ncc4cc3c2CCCCNC(=O)[C@@H]2C[C@H](CCN2C)N4)cn1` [a-02-24, (3^2S,3^4S)-3^1-Methyl-1^6-(2-(propoxymethyl)pyrimidin-5-yl)-2,5-diaza-1(3,5)-qunolina-3(4,2)-piperidinacyclononaphan-4-one], for which the half-inhibitory concentration (IC50) in data set [3] (Homo sapiens, THP-1, 4 h) amounted to 0.378 µM; against human IRAK-4, 13.2 nM.

A word on the IC50: it is the concentration that inhibits the measured activity by half. A higher IC50 goes with weaker potency in that assay.
